Reference: patent US20250296938A1, “Compounds that Interact with the Ras Superfamily for the Treatment of Cancers, Inflammatory Diseases, Rasopathies, and Fibrotic Disease” (SHY Therapeutics, LLC, priority 2018, published 2025)

Experiments:
IL-6 = assay: Mouse IL6 quantification assay, LPS-stimulated RAW 264.7 macrophages; assay type: cell-based; conditions: for inhibition at 30 µM: RAW264.7, 30 μM, LPS-stimulated RAW 264.7 macrophages
Method: (§1) Cell lines: Abelson murine leukemia virus transformed macrophage cell line RAW 264.7 was purchased from ATCC and grown in complete DMEM-High Glucose medium supplemented with penicillin (100 U/mL), streptomycin (100 μg/mL), and 10% heat-inactivated FBS at 37° C. in a humidified incubator with 5% CO2.
(§2) Method: Cells were plated at 25000-40000 cells/well density in a 96-well plate. After a 3-hour incubation, macrophages were starved with DMEM plus 0.5% FBS overnight. The next day the small molecules to be tested were added to the cells in the final concentration of 30 μM (with 0.3% DMSO) 3 hours prior to LPS stimulation (100 ng/ml). After LPS stimulation cells were incubated at 37° C. for 16 h. Alternatively, compounds were also tested at 10 μM and LPS (100 ng/ml) was added concurrently and incubated 5 hours at 37° C. At the end of the incubation periods, culture medium was collected and production of LPS-induced TNF-α and IL-6 cytokine was measured using ELISA detection kits.
(§3) Sandwich ELISA: The ELISA Immunoassays Quantikine Mouse TNF-alpha (catalog number MTA00B) and IL6 (catalog number M6000B) were purchased from R&D Systems Inc., Minneapolis, MN. These 4.5 hours solid phase ELISAs were used to measure mouse TNF-α or IL-6 levels in macrophages culture supernatants. Assays were executed according to the manufacturer specifications.

TNF-α = assay: Mouse TNF alpha quantification assay, LPS-stimulated RAW 264.7 macrophages; assay type: cell-based; conditions: for inhibition at 30 µM: RAW264.7, 30 μM, LPS-stimulated RAW 264.7 macrophages
Method: as §1, §2, §3

MAPK phosphorylation = assay: MAPK cell-based phosphorylation assay (ELISA or Western), PANC-1; conditions: Homo sapiens; 10 μM, PANC-1 (Table 4C)
How it was run: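 Serum-starved (0.5% FBS overnight) cells given compound at 10 μM or serial dilutions (0.3% DMSO) for 6 h at 37 °C, then 1.5 ng/mL EGF for 15 min. Phospho-MAPK read by fixed-cell ELISA (fluorescence, 595 nm) or by Western blot of lysates with anti-phospho-p44/42 (Thr202/Tyr204).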

AKT phosphorylation = assay: Western AKT cell-based phosphorylation assay, PANC-1; conditions: Homo sapiens, PANC-1 (Table 4C)
How it was run: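 PANC-1 cells, serum-starved overnight in 0.5% FBS, were treated with compound at 10 μM (0.3% DMSO) for 6 h at 37 °C and then stimulated with 1.5 ng/ml EGF for 15 min. Lysates (15–50 μg) were immunoblotted for phospho-Akt Ser473, with ECL detection.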

Structure (SMILES)	inhibition at 30 µM (IL-6) [%]	inhibition at 30 µM (TNF-α) [%]	also measured
Oc1nc(-c2ccccn2)nc(CN2CCc3ccccc3C2)c1O	0	0	
Cn1ccc(-c2sc3nc(-c4nccn4C)nc(N[C@@H]4CC[C@H](O)C4)c3c2-c2ccccc2)n1 (racemic) [drawing 774]			inhibition at 10 µM (IL-6; RAW264.7, 10 μM, LPS (100 ng/ml) added concurrently, 5 hours, RAW 264.7): 26 to 50%; inhibition at 10 µM (TNF-α; RAW264.7, 10 μM, LPS (100 ng/ml) added concurrently, 5 hours, RAW 264.7, read-out: TNFα % Inhibition): 1 to 25%
CO[C@H]1C[C@@H](Nc2nc(-c3nccn3C)nc3sc(-c4ccn(C)n4)c(C)c23)C1 [drawing 514]			inhibition at 10 µM (MAPK phosphorylation): 76 to 100%; inhibition at 10 µM (AKT phosphorylation): 0%
CO[C@H]1CC[C@@H](Nc2nc(-c3nccn3C)nc3sc(-c4ccn(C)n4)c(C)c23)C1 [drawing 515]			inhibition at 10 µM (MAPK phosphorylation): 0%; inhibition at 10 µM (AKT phosphorylation): 0%
Cc1c(-c2ccn(C)n2)sc2nc(-c3nccn3C)nc(NCCCS(C)(=O)=O)c12 [drawing 516]			inhibition at 10 µM (MAPK phosphorylation): 0%; inhibition at 10 µM (AKT phosphorylation): 0%
Cc1c(-c2ccn(C)n2)sc2nc(-c3nccn3C)nc(NCCCC(=O)N(C)C)c12 [drawing 517]			inhibition at 10 µM (MAPK phosphorylation): 0%; inhibition at 10 µM (AKT phosphorylation): 0%
Cc1c(-c2ccn(C)n2)sc2nc(-c3nccn3C)nc(NCCOC(=O)N(C)C)c12 [drawing 518]			inhibition at 10 µM (MAPK phosphorylation): 0%; inhibition at 10 µM (AKT phosphorylation): 0%
CO[C@H]1CC[C@@H](Nc2nc(-c3nccn3C)nc3sc(-c4ccn(C(C)C)n4)c(C)c23)C1 [drawing 519]			inhibition at 10 µM (MAPK phosphorylation): 76 to 100%; inhibition at 10 µM (AKT phosphorylation): 0%
CO[C@H]1C[C@@H](Nc2nc(-c3nccn3C)nc3sc(C(=O)NC(C)C)c(-c4ccccc4)c23)C1 [drawing 520]			inhibition at 10 µM (MAPK phosphorylation): 0%; inhibition at 10 µM (AKT phosphorylation): 0%
COCCNC(=O)c1sc2nc(-c3nccn3C)nc(N[C@H]3C[C@@H](OC)C3)c2c1-c1ccccc1 [drawing 521]			inhibition at 10 µM (MAPK phosphorylation): 0%; inhibition at 10 µM (AKT phosphorylation): 0%
CO[C@H]1C[C@@H](Nc2nc(-c3nccn3C)nc3sc(C(=O)N4CCOCC4)c(-c4ccccc4)c23)C1 [drawing 522]			inhibition at 10 µM (MAPK phosphorylation): 0%; inhibition at 10 µM (AKT phosphorylation): 0%
COC1CCN(C(=O)c2sc3nc(-c4nccn4C)nc(N[C@H]4C[C@@H](OC)C4)c3c2-c2ccccc2)C1 (stereo partly shown) [drawing 523]			inhibition at 10 µM (MAPK phosphorylation): 0%; inhibition at 10 µM (AKT phosphorylation): 0%
CO[C@H]1CC[C@@H](Nc2nc(-c3nccn3C)nc3sc(C(=O)NC(C)C)c(-c4ccccc4)c23)C1 [drawing 524]			inhibition at 10 µM (MAPK phosphorylation): 0%; inhibition at 10 µM (AKT phosphorylation): 0%
COCCNC(=O)c1sc2nc(-c3nccn3C)nc(N[C@@H]3CC[C@H](OC)C3)c2c1-c1ccccc1 [drawing 525]			inhibition at 10 µM (MAPK phosphorylation): 0%; inhibition at 10 µM (AKT phosphorylation): 0%
CO[C@H]1CC[C@@H](Nc2nc(-c3nccn3C)nc3sc(C(=O)N4CCCC4)c(-c4ccccc4)c23)C1 [drawing 526]			inhibition at 10 µM (MAPK phosphorylation): 0%; inhibition at 10 µM (AKT phosphorylation): 0%
CO[C@H]1CC[C@@H](Nc2nc(-c3nccn3C)nc3sc(C(=O)N4CCOCC4)c(-c4ccccc4)c23)C1 [drawing 527]			inhibition at 10 µM (MAPK phosphorylation): 0%; inhibition at 10 µM (AKT phosphorylation): 0%
COc1cccc(-c2csc3c(O)nc(-c4nccn4C)nc23)c1Cl [drawing 663]	76 to 100	26 to 50	
Cn1ccnc1-c1nc(O)c2scc(-c3ccccn3)c2n1 [drawing 664]	76 to 100	76 to 100	
Oc1nc(-c2ncc3n2CCCC3)nc2c(-c3ccccn3)csc12 [drawing 665]	76 to 100	51 to 75	
Oc1nc(-c2cn3ccccc3n2)nc2c(-c3ccccn3)csc12 [drawing 666]	76 to 100	76 to 100	
COCCn1ccnc1-c1nc(O)c2scc(-c3ccccn3)c2n1 [drawing 667]	76 to 100	76 to 100	
Cc1cc(Cn2ccnc2-c2nc(O)c3scc(-c4ccccn4)c3n2)on1 [drawing 668]	76 to 100	51 to 75	
Oc1nc(-c2nccn2Cc2ccccn2)nc2c(-c3ccccn3)csc12 [drawing 669]	76 to 100	51 to 75	
COc1cccc(Cn2ccnc2-c2nc(O)c3scc(-c4ccccn4)c3n2)c1 [drawing 670]	76 to 100	76 to 100	
Cc1cnc(-c2nc(O)c3scc(-c4ccccn4)c3n2)n1C [drawing 671]	76 to 100	76 to 100	

Structure (SMILES)	inhibition at 30 µM (IL-6) [%]	inhibition at 30 µM (TNF-α) [%]	also measured
Cc1cn(C)c(-c2nc(O)c3scc(-c4ccccn4)c3n2)n1 [drawing 672]	76 to 100	76 to 100	
Oc1nc(-c2ncc3ccccn23)nc2c(-c3ccccn3)csc12 [drawing 673]	76 to 100	76 to 100	
Oc1nc(-c2cn3cccnc3n2)nc2c(-c3ccccn3)csc12 [drawing 674]	0	0	
Oc1nc(-c2cn(-c3ccccc3)cn2)nc2c(-c3ccccn3)csc12 [drawing 675]	76 to 100	0	
COc1ccc(Cn2cnc(-c3nc(O)c4scc(-c5ccccn5)c4n3)c2)cc1 [drawing 676]	76 to 100	1 to 25	
COCCCNc1nc(-c2nccn2C)nc2sc(-c3ccn(C)n3)c(-c3ccccc3)c12 [drawing 677]	76 to 100	76 to 100	
COCCCN(C)c1nc(-c2nccn2C)nc2sc(-c3ccn(C)n3)c(-c3ccccc3)c12 [drawing 678]	1 to 25	51 to 75	
COCC(C)Nc1nc(-c2nccn2C)nc2sc(-c3ccn(C)n3)c(-c3ccccc3)c12 (stereo not shown) [drawing 679]	76 to 100	76 to 100	
COC1CCN(c2nc(-c3nccn3C)nc3sc(-c4ccn(C)n4)c(-c4ccccc4)c23)C1 (stereo not shown) [drawing 680]	26 to 50	1 to 25	
Cn1ccc(-c2sc3nc(-c4nccn4C)nc(NC4CCOCC4)c3c2-c2ccccc2)n1 [drawing 681]	26 to 50	1 to 25	
Cn1ccc(-c2sc3nc(-c4nccn4C)nc(NCC4CCOC4)c3c2-c2ccccc2)n1 (stereo not shown) [drawing 682]	76 to 100	76 to 100	
CO[C@H]1CCC(Nc2nc(-c3nccn3C)nc3sc(-c4ccn(C)n4)c(-c4ccccc4)c23)C1 (stereo partly shown) [drawing 683]	76 to 100	76 to 100	
CO[C@@H]1CCC(Nc2nc(-c3nccn3C)nc3sc(-c4ccn(C)n4)c(-c4ccccc4)c23)C1 (stereo partly shown) [drawing 684]	76 to 100	76 to 100	
COCC1CCN(c2nc(-c3nccn3C)nc3sc(-c4ccn(C)n4)c(-c4ccccc4)c23)C1 (stereo not shown) [drawing 685]	76 to 100	76 to 100	
Cn1ccc(-c2sc3nc(-c4nccn4C)nc(N4CCC5(CCOC5)C4)c3c2-c2ccccc2)n1 (stereo not shown) [drawing 686]	51 to 75	0	
COC1CCN(c2nc(-c3nccn3C)nc3sc(-c4ccn(C)n4)c(-c4ccccc4)c23)CC1 [drawing 687]	26 to 50	26 to 50	
COCCCNc1nc(-c2nccn2C)nc2sc(-c3ccn(C)n3)c(-c3ccc(OC)cc3)c12 [drawing 688]	76 to 100	0	
COCC(C)Nc1nc(-c2nccn2C)nc2sc(-c3ccn(C)n3)c(-c3ccc(OC)cc3)c12 (stereo not shown) [drawing 689]	76 to 100	0	
COc1ccc(-c2c(-c3ccn(C)n3)sc3nc(-c4nccn4C)nc(N4CCC(OC)C4)c23)cc1 (stereo not shown) [drawing 690]	1 to 25	0	
COCC(C)Nc1nc(-c2nccn2C)nc2sc(-c3ccccc3Cl)c(-c3cscn3)c12 (stereo not shown) [drawing 691]	76 to 100	76 to 100	
COC1CCN(c2nc(-c3nccn3C)nc3sc(-c4ccccc4Cl)c(-c4cscn4)c23)C1 (stereo not shown) [drawing 692]	51 to 75	0	
COCC(C)Nc1nc(-c2nccn2C)nc2sc(-c3cccc(OC)c3)c(-c3cscn3)c12 (stereo not shown) [drawing 693]	26 to 50	26 to 50	
COc1cccc(-c2sc3nc(-c4nccn4C)nc(N4CCC(OC)C4)c3c2-c2cscn2)c1 (stereo not shown) [drawing 694]	1 to 25	1 to 25	
COCCNc1nc(-c2nccn2C)nc2sc(-c3ccccc3Cl)c(-c3ccc(OC)cc3)c12 [drawing 695]	26 to 50	0	
COCCNc1nc(-c2nccn2C)nc2sc(-c3cccc(OC)c3)c(-c3ccc(OC)cc3)c12 [drawing 696]	76 to 100	76 to 100	
